Data taken from patent US20220031684A1, “PROPHYLACTIC EFFICACY OF SEROTONIN 4 RECEPTOR AGONISTS AGAINST STRESS” (THE TRUSTEES OF COLUMBIA UNIVERSITY IN THE CITY OF NEW YORK, priority 2019, published 2022).

Legend:
C57BL/6NTac mice [1] = test: Elevated plus maze (EPM) in CORT model; assay type: in vivo; settings: male C57BL/6NTac; Flx 18 mg/kg/day or RS-67,333 1.5 mg/kg/day for 3 weeks prior to CORT
Method: This chronic CORT elevation dysregulates the hypothalamic-pituitary-adrenal axis (HPA) in a manner similar to that observed in clinical depression. The dose and duration of CORT treatment was selected based on previous studies. CORT (35 μg/ml, equivalent to about 5 mg/kg/day) dissolved in 0.45% hydroxypropyl-o-cyclodextrin (0-CD) or vehicle (VEH) (0.45% j-CD) was available ad libitum in the drinking water in opaque bottles to protect it from light. VEH- and CORT-treated water was changed every 3 days to prevent possible degradation. Contextual Fear Conditioning (CFC): A 3-shock CFC procedure was administered as previously published. Briefly, mice were placed into context A and administered 3 2-s shocks (0.75 mA) at 180 s, 240 s or 300 s following placement into context A. Mice were removed from the context 15 s following the termination of shock (at 317 s). For context retrieval, mice were placed back into context A for 300 s. Electrophysiology: Electrophysiology was conducted as previously described. Statistical Analysis: Results from data analyses are expressed as means±SEM. Alpha was set to 0.05 for all analyses. Data were analyzed using GraphPad Prism v7.0 or v8.0. For all experiments, unless otherwise noted, one- or two-way ANOVAs with repeated-measures were applied to the data as appropriate. Significant main effects and/or interactions were followed by Fisher's PLSD post hoc analysis or unpaired t-tests. Drugs: All drugs were prepared in physiological saline and all injections were administered intraperitoneally (i.p.) in volumes of 0.1 cc per […] body weight unless otherwise noted. Fluoxetine hydrochloride (Flx): Flx (BioTrend Chemicals AG, BG197, Zurich, Germany) was administered in the drinking water (18 mg/kg/day) for 3 weeks before the start of CORT. […] (R,S)-ketamine (K): (R,S)-ketamine (Ketaset III, Ketamine HCl injection, Fort Dodge Animal Health, Fort Dodge, Iowa) was administered in a single dose at 30 mg/kg of body weight 1 week before the start of CFC. […] PF-04995274: PF-04995274 (Sigma, Catalog No. 1331782-27-4, St. Louis, Mo.) was administered a single dose at 3 or 10 mg/kg of body weight 1 week before the start of CFC. PF-04995274 was dissolved in saline using an ultrasonic homogenizer (BioLogics, Model 3000, Manassas, Va.). Osmotic minipump implantation: ALZET osmotic minipumps (Model 2004, […], 28 days) were implanted subcutaneously under isoflurane anesthesia as previously described [S2]. Osmotic minipumps were rotated under the skin two to three times per week. Behavioral Assays: All experiments were approved by the Institutional Animal Care and Use Committee (IACUC) at the New York Psychiatric Institute (NYSPI). […] Videos were scored using ANY-maze behavior tracking software (Stoelting, Wood Dale, Ill.). […]

C57BL/6NTac mice [2] = test: Novelty-suppressed feeding (NSF) in CORT model; assay type: in vivo; settings: male C57BL/6NTac; Flx 18 mg/kg/day or RS-67,333 1.5 mg/kg/day for 3 weeks prior to CORT
Method: (§1) This chronic CORT elevation dysregulates the hypothalamic-pituitary-adrenal axis (HPA) in a manner similar to that observed in clinical depression. The dose and duration of CORT treatment was selected based on previous studies. CORT (35 μg/ml, equivalent to about 5 mg/kg/day) dissolved in 0.45% hydroxypropyl-o-cyclodextrin (0-CD) or vehicle (VEH) (0.45% j-CD) was available ad libitum in the drinking water in opaque bottles to protect it from light. VEH- and CORT-treated water was changed every 3 days to prevent possible degradation. Contextual Fear Conditioning (CFC): A 3-shock CFC procedure was administered as previously published. Briefly, mice were placed into context A and administered 3 2-s shocks (0.75 mA) at 180 s, 240 s or 300 s following placement into context A. Mice were removed from the context 15 s following the termination of shock (at 317 s). For context retrieval, mice were placed back into context A for 300 s. Electrophysiology: Electrophysiology was conducted as previously described. Statistical Analysis: Results from data analyses are expressed as means±SEM. Alpha was set to 0.05 for all analyses. Data were analyzed using GraphPad Prism v7.0 or v8.0. For all experiments, unless otherwise noted, one- or two-way ANOVAs with repeated-measures were applied to the data as appropriate. […] Videos were scored using ANY-maze behavior tracking software (Stoelting, Wood Dale, Ill.). […]

C57BL/6NTac mice [3] = test: Adverse side effects of chronic administration; assay type: in vivo
Method: as §1

129S6/SvEv mice = test: Open field (OF) after CFC; assay type: in vivo
Method: This chronic CORT elevation dysregulates the hypothalamic-pituitary-adrenal axis (HPA) in a manner similar to that observed in clinical depression. The dose and duration of CORT treatment was selected based on previous studies. CORT (35 μg/ml, equivalent to about 5 mg/kg/day) dissolved in 0.45% hydroxypropyl-o-cyclodextrin (0-CD) or vehicle (VEH) (0.45% j-CD) was available ad libitum in the drinking water in opaque bottles to protect it from light. VEH- and CORT-treated water was changed every 3 days to prevent possible degradation. Contextual Fear Conditioning (CFC): A 3-shock CFC procedure was administered as previously published. Briefly, mice were placed into context A and administered 3 2-s shocks (0.75 mA) at 180 s, 240 s or 300 s following placement into context A. Mice were removed from the context 15 s following the termination of shock (at 317 s). For context retrieval, mice were placed back into context A for 300 s. Electrophysiology: Electrophysiology was conducted as previously described. Statistical Analysis: Results from data analyses are expressed as means±SEM. Alpha was set to 0.05 for all analyses. Data were analyzed using GraphPad Prism v7.0 or v8.0. For all experiments, unless otherwise noted, one- or two-way ANOVAs with repeated-measures were applied to the data as appropriate. Significant main effects and/or interactions were followed by Fisher's PLSD post hoc analysis or unpaired t-tests. Drugs: All drugs were prepared in physiological saline and all injections were administered intraperitoneally (i.p.) in volumes of 0.1 cc per […] body weight unless otherwise noted. Fluoxetine hydrochloride (Flx): Flx (BioTrend Chemicals AG, BG197, Zurich, Germany) was administered in the drinking water (18 mg/kg/day) for 3 weeks before the start of CORT. […] (R,S)-ketamine (K): (R,S)-ketamine (Ketaset III, Ketamine HCl injection, Fort Dodge Animal Health, Fort Dodge, Iowa) was administered in a single dose at 30 mg/kg of body weight 1 week before the start of CFC. […] Videos were scored using ANY-maze behavior tracking software (Stoelting, Wood Dale, Ill.). […]

DRN 5-HT neurons = test: In vivo electrophysiological recordings of DRN 5-HT neurons; set-up: species or system mice; settings: RS67333 1.5 mg/kg i.p.; after vs before administration
Method: FIGS. 7A-7G. Acute 5-HT4 receptor stimulation induces fast anxiolytic-like effects on 5-HT function through a modulation of the mPFC in an anxious BALB/cJRj mouse strain. (7A) Before the administration of RS67333 (RS, 1.5 mg/kg), different tracks were performed to record 5-HT neurons for 30 min. At the end of this period, RS67333 was administered i.p. and 30 min after, two or three subsequent tracks were realized. (7B) Discharge frequency of DRN 5-HT neurons is assessed as mean firing rate. The number of neurons tested is indicated in each histogram (n=25 and 26 before and after RS injection for a total of n=5 mice). Data are mean±[…] of DRN 5-HT neurons determined before the administration of RS67333. (7C) Typical recordings of DRN 5-HT neurons in the different experimental conditions. Histograms in the upper panels represent the number of action potentials (APs) per 10 seconds (scale bar). […] (7E) Cortical 5-HT depletion by p-CPA pre-treatment is measured as mean 5-HT levels (n=6-8 mice per group). (7F and 7G) Anxiety is measured in the elevated plus maze (EPM) as mean time or percent time spent in the open arms (F and inset), as mean ratio ambulatory distance in open arms/total distance (7G) and as mean total ambulatory distance (inset) (n=8-11 mice per group). […]

[4] = biological target: other neurotransmitter receptors; settings: except sigma receptors; cited from earlier work

With CCCCN1CCC(CCC(=O)c2cc(Cl)c(N)cc2OC)CC1.Cl [RS-67,333, 1-(4-amino-5-chloro-2-methoxyphenyl)-3-[1(n-butyl)-4-piperidinyl]-1-propanone HCl] the “entries into the open arms of the EPM vs CORT+Veh” value (C57BL/6NTac mice [1]) was “significantly more entries”, the “time spent in the open arms of the EPM vs VEH+Veh” value (C57BL/6NTac mice [1]) was “did not alter” and the “latency to approach the food pellet (NSF) vs CORT+Veh” value (C57BL/6NTac mice [2]) was “significantly decreased latency”. The adverse side effects (C57BL/6NTac mice [3]) was “did not result in adverse side effects”, the “p, OF Time in Center, Saline vs. RS67333 (10 mg/kg)” value (129S6/SvEv mice; FIG. 2I, t-test) was 0.2475 and the “time spent in the center of the OF” value (129S6/SvEv mice; female 129S6/SvEv, 1.5 or 10 mg/kg) was “did not alter”. For the same molecule, the “time in the center of the OF arena vs saline” value (129S6/SvEv mice; male 129S6/SvEv, 10 mg/kg) was “comparable amount of time”, the “increase of the discharge frequency of DRN 5-HT neurons” value (DRN 5-HT neurons) was 63% and the “pKi for other neurotransmitter receptors” value [4] was “less than 6.7”.
